Data reported in ChEMBL document CHEMBL3734713, “4-Thiazolidinone derivatives as potent antimicrobial agents: microwave-assisted synthesis, biological evaluation and docking studies” (2015).
Converted amounts (≈) assume the structure as drawn.

Key:
[1] = test system: Bacillus cereus; assay: Antibacterial activity against clinical isolates of Bacillus cereus assessed as growth inhibition after 24 hrs at 37 degC by iodonitrotetrazolium chloride staining based microdilution broth assay; format: functional
[2] = test system: Micrococcus flavus; assay: Antibacterial activity against Micrococcus flavus ATCC 10240 assessed as growth inhibition after 24 hrs at 37 degC by iodonitrotetrazolium chloride staining based microdilution broth assay; format: functional; conditions: ATCC 10240, 24 h
[3] = test system: Staphylococcus aureus; assay: Antibacterial activity against Staphylococcus aureus ATCC 6538 assessed as growth inhibition after 24 hrs at 37 degC by iodonitrotetrazolium chloride staining based microdilution broth assay; format: functional; conditions: ATCC 6538, 24 h
[4] = test system: Listeria monocytogenes; assay: Antibacterial activity against Listeria monocytogenes NCTC 7973 assessed as growth inhibition after 24 hrs at 37 degC by iodonitrotetrazolium chloride staining based microdilution broth assay; format: functional; conditions: NCTC 7973, 24 h
[5] = test system: Escherichia coli; assay: Antibacterial activity against Escherichia coli ATCC 35210 assessed as growth inhibition after 24 hrs at 37 degC by iodonitrotetrazolium chloride staining based microdilution broth assay; format: functional; conditions: ATCC 35210, 24 h
[6] = test system: Enterobacter cloacae; assay: Antibacterial activity against human isolate of Enterobacter cloacae assessed as growth inhibition after 24 hrs at 37 degC by iodonitrotetrazolium chloride staining based microdilution broth assay; format: functional
[7] = test system: Pseudomonas aeruginosa; assay: Antibacterial activity against Pseudomonas aeruginosa ATCC 27853 assessed as growth inhibition after 24 hrs at 37 degC by iodonitrotetrazolium chloride staining based microdilution broth assay; format: functional; conditions: ATCC 27853, 24 h
[8] = test system: Salmonella typhimurium; assay: Antibacterial activity against Salmonella typhimurium ATCC 13311 assessed as growth inhibition after 24 hrs at 37 degC by iodonitrotetrazolium chloride staining based microdilution broth assay; format: functional, Salmonella enterica subsp. enterica serovar Typhimurium; conditions: Salmonella enterica, ATCC 13311, 24 h
[9] = test system: Aspergillus fumigatus; assay: Antifungal activity against Aspergillus fumigatus ATCC 1022 assessed as growth inhibition after 72 hrs at 28 degC by serial dilution method; format: functional; conditions: for MIC: Aspergillus fumigatus, ATCC 1022, 72 h
[10] = test system: Aspergillus versicolor; assay: Antifungal activity against Aspergillus versicolor ATCC 11730 assessed as growth inhibition after 72 hrs at 28 degC by serial dilution method; format: functional; conditions: for MIC: Aspergillus versicolor, ATCC 11730, 72 h
[11] = test system: Aspergillus ochraceus; assay: Antifungal activity against Aspergillus ochraceus ATCC 12066 assessed as growth inhibition after 72 hrs at 28 degC by serial dilution method; format: functional; conditions: for MIC: Aspergillus ochraceus, ATCC 12066, 72 h
[12] = test system: Aspergillus niger; assay: Antifungal activity against Aspergillus niger ATCC 6275 assessed as growth inhibition after 72 hrs at 28 degC by serial dilution method; format: functional; conditions: for MIC: Aspergillus niger, ATCC 6275, 72 h
[13] = test system: Trichoderma viride; assay: Antifungal activity against Trichoderma viride IAM 5061 assessed as growth inhibition after 72 hrs at 28 degC by serial dilution method; format: functional; conditions: for MIC: Trichoderma viride, IAM 5061, 72 h
[14] = test system: Talaromyces funiculosus; assay: Antifungal activity against Penicillium funiculosum ATCC 36839 assessed as growth inhibition after 72 hrs at 28 degC by serial dilution method; format: functional; conditions: for MIC: Talaromyces funiculosus, ATCC 36839, 72 h
[15] = test system: Penicillium ochrochloron; assay: Antifungal activity against Penicillium ochrochloron ATCC 9112 assessed as growth inhibition after 72 hrs at 28 degC by serial dilution method; format: functional; conditions: for MIC: Penicillium ochrochloron, ATCC 9112, 72 h
[16] = test system: Candida albicans; assay: Antifungal activity against Candida albicans ATCC 10231 assessed as growth inhibition after 72 hrs at 28 degC by serial dilution method; format: functional; conditions: for MIC: Candida albicans, ATCC 10231, 72 h
[17] = biological target: Human immunodeficiency virus type 1 reverse transcriptase (Human immunodeficiency virus 1) (UniProt Q72547); assay: Inhibition of HIV1 reverse transcriptase assessed as residual enzyme activity by measuring reduction in [3H]dTTP incorporation into poly(rA)-oligo(dT) at 4 uM incubated for 15 mins by scintillation counting method relative to control

| Structure (SMILES) | MBC [1] [µM] | MIC [1] [µM] | MBC [2] [µM] | MIC [2] [µM] | MBC [3] [µM] | MIC [3] [µM] | MBC [4] [µM] | MIC [4] [µM] | MBC [5] [µM] | MIC [5] [µM] | MBC [6] [µM] | MIC [6] [µM] | MBC [7] [µM] | MIC [7] [µM] | MBC [8] [µM] | MIC [8] [µM] | MFC99.5 [9] [×10⁻² umol/ml] | MIC [9] [µM] | MFC99.5 [10] [×10⁻² umol/ml] | MIC [10] [µM] | also measured |
| --- | --- | --- | --- | --- | --- | --- | --- | --- | --- | --- | --- | --- | --- | --- | --- | --- | --- | --- | --- | --- | --- |
| CC1(C)S[C@@H]2[C@H](NC(=O)[C@H](N)c3ccccc3)C(=O)N2[C@H]1C(=O)O [AMPICILLIN] | 372 (≈ 130 µg/mL) | 248 (≈ 86.7 µg/mL) | 372 (≈ 130 µg/mL) | 248 (≈ 86.7 µg/mL) | 378 (≈ 132 µg/mL) | 248 (≈ 86.7 µg/mL) | 744 (≈ 260 µg/mL) | 372 (≈ 130 µg/mL) | 492 (≈ 172 µg/mL) | 372 (≈ 130 µg/mL) | 372 (≈ 130 µg/mL) | 248 (≈ 86.6 µg/mL) | 1240 (≈ 433 µg/mL) | 744 (≈ 260 µg/mL) | 492 (≈ 172 µg/mL) | 248 (≈ 86.7 µg/mL) |  |  |  |  |  |
| c1ccc(-c2ccc(C(c3ccccc3)n3ccnc3)cc2)cc1 (stereo not drawn) [BIFONAZOLE] |  |  |  |  |  |  |  |  |  |  |  |  |  |  |  |  | 64 | 480 (≈ 149 µg/mL) | 64 | 320 (≈ 99.3 µg/mL) | MFC99.5 [11]: 80 ×10⁻² umol/ml; MIC [11]: 480 µM (≈ 149 µg/mL); MFC99.5 [12]: 64 ×10⁻² umol/ml; MIC [12]: 480 µM (≈ 149 µg/mL); MFC99.5 [13]: 80 ×10⁻² umol/ml; MIC [13]: 640 µM (≈ 199 µg/mL); MFC99.5 [14]: 80 ×10⁻² umol/ml; MIC [14]: 640 µM (≈ 199 µg/mL); MFC99.5 [15]: 64 ×10⁻² umol/ml; MIC [15]: 480 µM (≈ 149 µg/mL); MFC99.5 [16]: 48 ×10⁻² umol/ml; MIC [16]: 320 µM (≈ 99.3 µg/mL) |
| O=C1CSC(c2cccc(Cl)c2Cl)N1c1nc(C23CC4CC(CC(C4)C2)C3)cs1 (stereo not drawn) | 62.5 (≈ 29.1 µg/mL) | 30.6 (≈ 14.2 µg/mL) | 62.5 (≈ 29.1 µg/mL) | 30.6 (≈ 14.2 µg/mL) | 15.3 (≈ 7.12 µg/mL) | 9 (≈ 4.19 µg/mL) | 125 (≈ 58.2 µg/mL) | 62.5 (≈ 29.1 µg/mL) | 125 (≈ 58.2 µg/mL) | 62.5 (≈ 29.1 µg/mL) | 62.5 (≈ 29.1 µg/mL) | 30.6 (≈ 14.2 µg/mL) | 62.5 (≈ 29.1 µg/mL) | 15.3 (≈ 7.12 µg/mL) | 62.5 (≈ 29.1 µg/mL) | 15.3 (≈ 7.12 µg/mL) | 0.06 | 0.42 (≈ 0.195 µg/mL) | 0.06 | 0.21 (≈ 0.0977 µg/mL) | MFC99.5 [11]: 0.06 ×10⁻² umol/ml; MIC [11]: 0.42 µM (≈ 0.195 µg/mL); MFC99.5 [12]: 0.06 ×10⁻² umol/ml; MIC [12]: 0.21 µM (≈ 0.0977 µg/mL); MFC99.5 [13]: 0.06 ×10⁻² umol/ml; MIC [13]: 0.21 µM (≈ 0.0977 µg/mL); MFC99.5 [14]: 0.06 ×10⁻² umol/ml; MIC [14]: 0.42 µM (≈ 0.195 µg/mL); MFC99.5 [15]: 0.06 ×10⁻² umol/ml; MIC [15]: 0.21 µM (≈ 0.0977 µg/mL); MFC99.5 [16]: 1.075 ×10⁻² umol/ml; MIC [16]: 5.3 µM (≈ 2.47 µg/mL); Activity [17]: 100% |
| O=C1CSC(c2cccc(Cl)c2)N1c1nc(C23CC4CC(CC(C4)C2)C3)cs1 (stereo not drawn) | 62.5 (≈ 26.9 µg/mL) | 16.2 (≈ 7 µg/mL) | 125 (≈ 53.9 µg/mL) | 62.5 (≈ 26.9 µg/mL) | 62.5 (≈ 26.9 µg/mL) | 30.6 (≈ 13.2 µg/mL) | 125 (≈ 53.9 µg/mL) | 62.5 (≈ 26.9 µg/mL) | 125 (≈ 53.9 µg/mL) | 62.5 (≈ 26.9 µg/mL) | 125 (≈ 53.9 µg/mL) | 62.5 (≈ 26.9 µg/mL) | 125 (≈ 53.9 µg/mL) | 62.5 (≈ 26.9 µg/mL) | 62.5 (≈ 26.9 µg/mL) | 30.6 (≈ 13.2 µg/mL) | 0.58 | 2.9 (≈ 1.25 µg/mL) | 0.07 | 0.3 (≈ 0.129 µg/mL) | MFC99.5 [11]: 0.07 ×10⁻² umol/ml; MIC [11]: 0.45 µM (≈ 0.194 µg/mL); MFC99.5 [12]: 0.07 ×10⁻² umol/ml; MIC [12]: 0.3 µM (≈ 0.129 µg/mL); MFC99.5 [13]: 0.045 ×10⁻² umol/ml; MIC [13]: 0.3 µM (≈ 0.129 µg/mL); MFC99.5 [14]: 0.58 ×10⁻² umol/ml; MIC [14]: 2.9 µM (≈ 1.25 µg/mL); MFC99.5 [15]: 0.58 ×10⁻² umol/ml; MIC [15]: 2.9 µM (≈ 1.25 µg/mL); MFC99.5 [16]: 1.16 ×10⁻² umol/ml; MIC [16]: 5.8 µM (≈ 2.5 µg/mL); Activity [17]: 99.3% |
| COc1ccc(C2SCC(=O)N2c2nc(C34CC5CC(CC(C5)C3)C4)cs2)cc1 (stereo not drawn) | 30.6 (≈ 13.1 µg/mL) | 16.3 (≈ 6.95 µg/mL) | 125 (≈ 53.3 µg/mL) | 62.5 (≈ 26.7 µg/mL) | 62.5 (≈ 26.7 µg/mL) | 30.6 (≈ 13.1 µg/mL) | 125 (≈ 53.3 µg/mL) | 62.5 (≈ 26.7 µg/mL) | 125 (≈ 53.3 µg/mL) | 30.6 (≈ 13.1 µg/mL) | 125 (≈ 53.3 µg/mL) | 30.6 (≈ 13.1 µg/mL) | 62.5 (≈ 26.7 µg/mL) | 30.6 (≈ 13.1 µg/mL) | 62.5 (≈ 26.7 µg/mL) | 30.6 (≈ 13.1 µg/mL) | 2.34 | 11.7 (≈ 4.99 µg/mL) | 0.58 | 2.9 (≈ 1.24 µg/mL) | MFC99.5 [11]: 0.29 ×10⁻² umol/ml; MIC [11]: 1.4 µM (≈ 0.597 µg/mL); MFC99.5 [12]: 0.58 ×10⁻² umol/ml; MIC [12]: 2.9 µM (≈ 1.24 µg/mL); MFC99.5 [13]: 0.29 ×10⁻² umol/ml; MIC [13]: 1.4 µM (≈ 0.597 µg/mL); MFC99.5 [14]: 0.58 ×10⁻² umol/ml; MIC [14]: 2.9 µM (≈ 1.24 µg/mL); MFC99.5 [15]: 0.14 ×10⁻² umol/ml; MIC [15]: 0.9 µM (≈ 0.384 µg/mL); MFC99.5 [16]: 2.34 ×10⁻² umol/ml; MIC [16]: 11.7 µM (≈ 4.99 µg/mL); Activity [17]: 100% |
| CC(=O)N1CCN(c2ccc(OCC3COC(Cn4ccnc4)(c4ccc(Cl)cc4Cl)O3)cc2)CC1 (stereo not drawn) [KETOCONAZOLE] |  |  |  |  |  |  |  |  |  |  |  |  |  |  |  |  | 95 | 380 (≈ 202 µg/mL) | 95 | 380 (≈ 202 µg/mL) | MFC99.5 [11]: 95 ×10⁻² umol/ml; MIC [11]: 380 µM (≈ 202 µg/mL); MFC99.5 [12]: 95 ×10⁻² umol/ml; MIC [12]: 380 µM (≈ 202 µg/mL); MFC99.5 [13]: 570 ×10⁻² umol/ml; MIC [13]: 4750 µM (≈ 2520 µg/mL); MFC99.5 [14]: 95 ×10⁻² umol/ml; MIC [14]: 380 µM (≈ 202 µg/mL); MFC99.5 [15]: 380 ×10⁻² umol/ml; MIC [15]: 3800 µM (≈ 2020 µg/mL); MFC99.5 [16]: 95 ×10⁻² umol/ml; MIC [16]: 380 µM (≈ 202 µg/mL) |
| CN[C@@H]1[C@H](O[C@H]2[C@H](O[C@H]3[C@H](O)[C@@H](O)[C@H](N=C(N)N)[C@@H](O)[C@@H]3N=C(N)N)O[C@@H](C)[C@]2(O)C=O)O[C@@H](CO)[C@H](O)[C@H]1O [STREPTOMYCIN] | 86 (≈ 50 µg/mL) | 43 (≈ 25 µg/mL) | 172 (≈ 100 µg/mL) | 86 (≈ 50 µg/mL) | 344 (≈ 200 µg/mL) | 172 (≈ 100 µg/mL) | 516 (≈ 300 µg/mL) | 258 (≈ 150 µg/mL) | 344 (≈ 200 µg/mL) | 172 (≈ 100 µg/mL) | 86 (≈ 50 µg/mL) | 43 (≈ 25 µg/mL) | 344 (≈ 200 µg/mL) | 272 (≈ 158 µg/mL) | 344 (≈ 200 µg/mL) | 172 (≈ 100 µg/mL) |  |  |  |  |  |
